According to US20070128217A1 (priority 2003, published 2007):

Assays:
[1] = test system: control sera (pooled serum of ten healthy LUMC hospital workers; commercial negative donor pooled serum from the Dutch bloodbank); type: binding, human; design: Binding of Control serum LUMC to linear peptides / Binding of Control serum Blood-bank to linear peptides / Binding of Control serum LUMC to looped peptides / Binding of Control Serum Blood-Bank to Looped peptides / Binding of Control serum LUMC to linear peptides of the protein M of SARS-CoV Urbani / Binding of Control serum Blood-bank to linear peptides of the protein M of SARS-CoV Urbani / Binding of Control serum LUMC to looped peptides of the protein M of SARS-CoV Urbani / Binding of Control Serum Blood-Bank to Looped peptides of the protein M of SARS-CoV Urbani: unit not given here
[2] = test system: antibodies in sera from SARS patients (sera 1a, 1b, 2, 6, 37, 62, London, SARS-yellow, SARS-green); type: binding, human; design: Binding of serum 6 to linear peptides of protein X1 of SARS-CoV Urbani / Binding of serum 37 to linear peptides of protein X1 of SARS-CoV Urbani / Binding of serum 6 to looped/cyclic peptide (PEPSCAN-ELISA) / Binding of serum 37 to looped/cyclic peptide (PEPSCAN-ELISA) / Binding of serum 37 to looped/cyclic peptides of protein X1 of SARS-CoV Urbani / Binding of serum 6 to linear peptides of protein X2 / Binding of serum 37 to linear peptides of protein X2 / Binding of serum 37 to looped/cyclic peptides of protein X2 of SARS-CoV Urbani / Binding of serum 6 to linear peptides of protein M of SARS-CoV Urbani / Binding of serum 37 to linear peptides of protein M of SARS-CoV Urbani / Binding of serum 6 to looped/cyclic peptides of protein M of SARS-CoV Urbani / Binding of serum 37 to looped/cyclic peptides of protein M of SARS-CoV Urbani / Binding of serum 6 to linear peptides of protein X3 of SARS-CoV Urbani / Binding of serum 37 to linear peptides of protein X3 of SARS-CoV Urbani / Binding of serum 37 to looped/cyclic peptides of protein X3 of SARS-CoV Urbani / Binding of serum 6 to linear peptides of protein X4 of SARS-CoV Urbani / Binding of serum 37 to linear peptides of protein X4 of SARS-CoV Urbani / Binding of serum 37 to looped/cyclic peptides of protein X4 of SARS-CoV Urbani / Binding of serum 6 to linear peptides of protein X5 of SARS-CoV Urbani / Binding of serum 37 to linear peptides of protein X5 of SARS-CoV Urbani / Binding of serum 37 to looped/cyclic peptides of protein X5 of SARS-CoV Urbani / Binding of serum 6 to linear peptides of protein N of SARS-CoV Urbani / Binding of serum 37 to linear peptides of protein N of SARS-CoV Urbani / Binding of serum 6 to linear peptide (PEPSCAN-ELISA) / Binding of serum 1a to looped/cyclic peptides of protein N of SARS-CoV Urbani / Binding of serum 1b to looped/cyclic peptides of protein N of SARS-CoV Urbani / Binding of serum 2 to looped/cyclic peptides of protein N of SARS-CoV Urbani / Binding of serum 6 to looped/cyclic peptides of protein N of SARS-CoV Urbani / Binding of serum 37 to looped/cyclic peptides of protein N of SARS-CoV Urbani / Binding of serum 62 to looped/cyclic peptides of protein N of SARS-CoV Urbani / Binding of serum London to looped/cyclic peptides of protein N of SARS-CoV Urbani / Binding of serum SARS-green to looped/cyclic peptides of protein N of SARS-CoV Urbani: unit not given here
[3] = test system: rabbit serum obtained by immunizing a rabbit with the SARS-CoV strain Frankfurt 1; type: binding; design: Binding of a rabbit serum to linear peptides / Binding of a rabbit serum to looped peptides / Rabbit serum linear peptides / Rabbit serum looped peptides / Binding of a rabbit serum to linear peptides of protein N of SARS-CoV Urbani (Rabbit serum linear peptides) / Binding of a rabbit serum to looped/cyclic peptides of protein N of SARS-CoV Urbani (Rabbit serum looped peptides): unit not given here

VVTEGDGISTPKLKE
0.4: Binding of serum 1b to linear peptides of protein X1 of SARS-CoV Urbani [2] | Binding of serum 37 to linear peptides of protein X1 of SARS-CoV Urbani [2] | Binding of a rabbit serum to looped peptides [3]
0.1: Binding of serum 2 to looped/cyclic peptides of protein X1 of SARS-CoV Urbani [2] | Binding of serum SARS-green to linear peptides of protein X1 of SARS-CoV Urbani [2] | Binding of serum SARS-green to looped/cyclic peptides of protein X1 of SARS-CoV Urbani [2] | Binding of serum SARS-yellow to linear peptides of protein X1 of SARS-CoV Urbani [2] | Binding of a rabbit serum to linear peptides [3]
0.3: Binding of Control Serum Blood-Bank to Looped peptides [1] | Binding of Control serum Blood-bank to linear peptides [1] | Binding of Control serum LUMC to looped peptides [1] | Binding of serum 1a to looped/cyclic peptides of protein X1 of SARS-CoV Urbani [2] | Binding of serum 1b to looped/cyclic peptides of protein X1 of SARS-CoV Urbani [2] | Binding of serum 2 to linear peptides of protein X1 of SARS-CoV Urbani [2] | Binding of serum 37 to looped/cyclic peptides of protein X1 of SARS-CoV Urbani [2] | Binding of serum 62 to linear peptides of protein X1 of SARS-CoV Urbani [2] | Binding of serum 62 to looped/cyclic peptides of protein X1 of SARS-CoV Urbani [2] | Binding of serum London to linear peptides of protein X1 of SARS-CoV Urbani [2]
0.5: Binding of serum 1a to linear peptides of protein X1 of SARS-CoV Urbani [2]
0.2: Binding of Control serum LUMC to linear peptides [1] | Binding of serum 6 to linear peptides of protein X1 of SARS-CoV Urbani [2] | Binding of serum 6 to looped/cyclic peptides of protein X1 of SARS-CoV Urbani [2] | Binding of serum London to looped/cyclic peptides of protein X1 of SARS-CoV Urbani [2] | Binding of serum SARS-yellow to looped/cyclic peptides of protein X1 of SARS-CoV Urbani [2]

VYYQLESTQITTDTG
0.5: Binding of serum 1b to linear peptides of protein X1 of SARS-CoV Urbani [2] | Binding of serum 62 to linear peptides of protein X1 of SARS-CoV Urbani [2] | Binding of a rabbit serum to looped peptides [3]
0.4: Binding of Control serum Blood-bank to linear peptides [1] | Binding of Control serum LUMC to linear peptides [1] | Binding of serum 1a to looped/cyclic peptides of protein X1 of SARS-CoV Urbani [2] | Binding of serum 2 to linear peptides of protein X1 of SARS-CoV Urbani [2] | Binding of serum 6 to linear peptides of protein X1 of SARS-CoV Urbani [2] | Binding of serum 37 to looped/cyclic peptides of protein X1 of SARS-CoV Urbani [2]
0.2: Binding of serum 1b to looped/cyclic peptides of protein X1 of SARS-CoV Urbani [2] | Binding of serum London to linear peptides of protein X1 of SARS-CoV Urbani [2] | Binding of serum London to looped/cyclic peptides of protein X1 of SARS-CoV Urbani [2] | Binding of serum SARS-green to linear peptides of protein X1 of SARS-CoV Urbani [2] | Binding of serum SARS-green to looped/cyclic peptides of protein X1 of SARS-CoV Urbani [2]
0.3: Binding of Control Serum Blood-Bank to Looped peptides [1] | Binding of Control serum LUMC to looped peptides [1] | Binding of serum 62 to looped/cyclic peptides of protein X1 of SARS-CoV Urbani [2] | Binding of serum SARS-yellow to linear peptides of protein X1 of SARS-CoV Urbani [2]
0.6: Binding of serum 1a to linear peptides of protein X1 of SARS-CoV Urbani [2] | Binding of serum 37 to linear peptides of protein X1 of SARS-CoV Urbani [2]
0.1: Binding of serum 2 to looped/cyclic peptides of protein X1 of SARS-CoV Urbani [2] | Binding of serum 6 to looped/cyclic peptides of protein X1 of SARS-CoV Urbani [2] | Binding of serum SARS-yellow to looped/cyclic peptides of protein X1 of SARS-CoV Urbani [2] | Binding of a rabbit serum to linear peptides [3]

WIMLLQFAYSNRNRF
0.5: Binding of serum 1b to linear peptides of protein M of SARS-CoV Urbani [2] | Binding of serum 2 to linear peptides of protein M of SARS-CoV Urbani [2]
0.7: Binding of Control Serum Blood-Bank to Looped peptides of the protein M of SARS-CoV Urbani [1] | Binding of Control serum Blood-bank to linear peptides of the protein M of SARS-CoV Urbani [1] | Binding of Control serum LUMC to looped peptides of the protein M of SARS-CoV Urbani [1] | Binding of serum 1a to looped/cyclic peptides of protein M of SARS-CoV Urbani [2] | Binding of serum 37 to linear peptides of protein M of SARS-CoV Urbani [2] | Binding of serum 62 to linear peptides of protein M of SARS-CoV Urbani [2]
0.8: Binding of serum 6 to looped/cyclic peptides of protein M of SARS-CoV Urbani [2] | Rabbit serum linear peptides [3]
0.4: Binding of serum 2 to looped/cyclic peptides of protein M of SARS-CoV Urbani [2] | Binding of serum 37 to looped/cyclic peptides of protein M of SARS-CoV Urbani [2]
0.1: Binding of serum SARS-yellow to linear peptides of protein M of SARS-CoV Urbani [2]
0.3: Binding of Control serum LUMC to linear peptides of the protein M of SARS-CoV Urbani [1] | Binding of serum 6 to linear peptides of protein M of SARS-CoV Urbani [2] | Binding of serum London to linear peptides of protein M of SARS-CoV Urbani [2] | Binding of serum SARS-green to linear peptides of protein M of SARS-CoV Urbani [2] | Binding of serum SARS-yellow to looped/cyclic peptides of protein M of SARS-CoV Urbani [2] | Rabbit serum looped peptides [3]
0.2: Binding of serum London to looped/cyclic peptides of protein M of SARS-CoV Urbani [2] | Binding of serum SARS-green to looped/cyclic peptides of protein M of SARS-CoV Urbani [2]
0.6: Binding of serum 1a to linear peptides of protein M of SARS-CoV Urbani [2] | Binding of serum 1b to looped/cyclic peptides of protein M of SARS-CoV Urbani [2] | Binding of serum 62 to looped/cyclic peptides of protein M of SARS-CoV Urbani [2]

WIQFMMSRRRLLACL
0.3: Binding of Control Serum Blood-Bank to Looped peptides [1] | Binding of Control serum LUMC to looped peptides [1] | Binding of serum 1b to looped/cyclic peptides of protein X2 of SARS-CoV Urbani [2] | Binding of serum 6 to looped/cyclic peptides of protein X2 of SARS-CoV Urbani [2] | Binding of serum 37 to looped/cyclic peptides of protein X2 of SARS-CoV Urbani [2] | Binding of serum 62 to looped/cyclic peptides of protein X2 of SARS-CoV Urbani [2] | Binding of serum London to looped/cyclic peptides of protein X2 of SARS-CoV Urbani [2]
0.5: Binding of serum 6 to linear peptides of protein X2 [2] | Binding of serum 37 to linear peptides of protein X2 [2] | Binding of serum London to linear peptides of protein X2 [2] | Binding of serum SARS-green to linear peptides of protein X2 [2] | Binding of a rabbit serum to linear peptides [3]
0.7: Binding of serum SARS-yellow to linear peptides of protein X2 [2]
0.6: Binding of Control serum Blood-bank to linear peptides [1] | Binding of serum 1a to linear peptides of protein X2 [2] | Binding of serum 62 to linear peptides of protein X2 [2]
1.3: Binding of a rabbit serum to looped peptides [3]
0.4: Binding of Control serum LUMC to linear peptides [1] | Binding of serum 1a to looped/cyclic peptides of protein X2 of SARS-CoV Urbani [2] | Binding of serum 1b to linear peptides of protein X2 [2] | Binding of serum 2 to linear peptides of protein X2 [2] | Binding of serum SARS-yellow to looped/cyclic peptides of protein X2 of SARS-CoV Urbani [2]
0.2: Binding of serum SARS-green to looped/cyclic peptides of protein X2 of SARS-CoV Urbani [2]
0.1: Binding of serum 2 to looped/cyclic peptides of protein X2 of SARS-CoV Urbani [2]
